Test results from patent publication US20240148821A1, “PHARMACEUTICAL USE OF CYCLIC PEPTIDE COMPOUND” (CHUGAI SEIYAKU KABUSHIKI KAISHA, priority 2021, published 2024).
Numbered stars: 1 amine (or outer) side, 2 acyl side, 3 side chain; on linkers, the order of the positions; unused ones are H or OH. Bridge positions count the residues as written; N and C are the ends. Square brackets hold non-standard residues; d marks the D form. Peptide text beside a SMILES is read from it. * marks the point of attachment. hPhe(3,5-F2-4-CF3) = N[C@@H](CCc1cc(F)c(C(F)(F)F)c(F)c1)C(=O)O; hPhe(3-Cl-4-CF3) = N[C@@H](CCc1ccc(C(F)(F)F)c(Cl)c1)C(=O)O; NMePhe(4-CF3) = CN[C@@H](Cc1ccc(C(F)(F)F)cc1)C(=O)O; 3Oxa8azabicyclo(3.2.1)octane = C1CC2COCC1N2*; NEtPhe(4-Me) = CCN[C@@H](Cc1ccc(C)cc1)C(=O)O; NMeAbu(4,4,4-F3) = CN[C@@H](CC(F)(F)F)C(=O)O; NMePhe(4-Cl) = CN[C@@H](Cc1ccc(Cl)cc1)C(=O)O; NMePhe(4-Me) = CN[C@@H](Cc1ccc(C)cc1)C(=O)O; NMedβ3hAla = C[C@H](CC(=O)[*:2])N(C)[*:1]; NMeAla(cPent) = CN[C@@H](CC1CCCC1)C(=O)O; NMeGly(cPent) = CN[C@H](C(=O)O)C1CCCC1; Phe(3-I) = N[C@@H](Cc1cccc(I)c1)C(=O)O; NMeCha = CN[C@@H](CC1CCCCC1)C(=O)O; NMeGly(cPr) = CN[C@H](C(=O)O)C1CC1; NMehLeu = CN[C@@H](CCC(C)C)C(=O)O; NMeChg = CN[C@H](C(=O)O)C1CCCCC1; NMeF = CN[C@@H](Cc1ccccc1)C(=O)O; hPhe = N[C@@H](CCc1ccccc1)C(=O)O; NMeD = CN[C@@H](CC(=O)O)C(=O)O; NMeL = CN[C@@H](CC(C)C)C(=O)O; d(β3hA) = C[C@@H](N)CC(=O)O; Azetidin(1-yl) = C1CN(*)C1; Morpholide = C1CN(*)CCO1; NMeA = CN[C@@H](C)C(=O)O; NMeAib = CNC(C)(C)C(=O)O; Nle = CCCC[C@H](N)C(=O)O; Piperidide = C1CCN(*)CC1; Pyrrolidide = C1CCN(*)C1; Ac5c = NC1(C(=O)O)CCCC1; Aze = O=C(O)[C@@H]1CCN1; Sar = CNCC(=O)O

What follows are molecules tested on Human pancreatic cancer cell line AsPC-1 (G12D mutation Kras) (assay: AsPC-1 cell growth inhibition (AsPC-1 CGI)). Settings: read-out: AsPC-1 cell growth inhibition, 50% growth inhibitory concentration (IC50 value); 96 hours, CellTiter-Glo, values classified in ranges.
Assay type: cell-based
Protocol: Test compounds were serially dilated with dimethyl sulfoxide, and 200 nL was then dispensed to a U-bottom 96-well plate using Labcyte Echo. […] The cell suspension was dispensed to a. plate containing a test compound at 100 μL per well and incubated at 37° C. in a 5% carbon dioxide gas incubator. 96 hours later, 80 μL of CellTiter-Glo (Promega) was added to each well and fluorescence was measured.

Row | SMILES | IC50 [nM]
1 | CC[C@H](C)[C@@H]1NC(=O)[C@H](CC(F)(F)F)N(C)C(=O)C[C@@H](C(=O)N2CCCC2)N(C)C(=O)[C@H](C2CCCCC2)N(C)C(=O)C2(CCCC2)NC(=O)[C@@H]2CCCN2C(=O)[C@H](CCc2cc(F)c(C(F)(F)F)c(F)c2)NC(=O)CN(C)C(=O)[C@H](Cc2ccc(C(F)(F)F)cc2)N(C)C(=O)CN(C)C(=O)CN(C)C1=O [Compound 1244] ([NMeAbu(4,4,4-F3)]I[Sar][Sar][NMePhe(4-CF3)][Sar][hPhe(3,5-F2-4-CF3)]P[Ac5c][NMeChg][NMeD]-Pyrrolidide; lactam N-11) | ≤ 20
2 | CC[C@H](C)[C@@H]1NC(=O)[C@H](CC(C)C)N(C)C(=O)C[C@@H](C(=O)N2C3CCC2COC3)N(C)C(=O)[C@H](C2CCCC2)N(C)C(=O)C2(CCCC2)NC(=O)[C@@H]2CCCN2C(=O)[C@H](CCc2cc(F)c(C(F)(F)F)c(F)c2)NC(=O)CN(C)C(=O)[C@H](Cc2ccc(C)cc2)N(CC)C(=O)[C@@H]2CCN2C(=O)[C@H](C)N(C)C1=O [Compound 1215] ([NMeL]I[NMeA][Aze][NEtPhe(4-Me)][Sar][hPhe(3,5-F2-4-CF3)]P[Ac5c][NMeGly(cPent)][NMeD]-{3Oxa8azabicyclo(3.2.1)octane}; lactam N-11) | ≤ 20
3 | CC[C@H](C)[C@@H]1NC(=O)[C@H](CCC(C)C)N(C)C(=O)C[C@@H](C(=O)N2CCOCC2)N(C)C(=O)[C@H](C2CCCC2)N(C)C(=O)C2(CCCC2)NC(=O)[C@@H]2CCCN2C(=O)[C@H](CCc2ccc(C(F)(F)F)c(Cl)c2)NC(=O)CN(C)C(=O)[C@H](C2CCCC2)N(C)C(=O)[C@@H]2CCN2C(=O)[C@H](C)N(C)C1=O [Compound 1237] ([NMehLeu]I[NMeA][Aze][NMeGly(cPent)][Sar][hPhe(3-Cl-4-CF3)]P[Ac5c][NMeGly(cPent)][NMeD]-Morpholide; lactam N-11) | ≤ 20
4 | CC[C@H](C)[C@@H]1NC(=O)[C@H](CC(C)C)N(C)C(=O)C[C@@H](C)N(C)C(=O)[C@H](C2CC2)N(C)C(=O)C2(CCCC2)NC(=O)[C@@H]2CCCN2C(=O)[C@H](CCc2ccc(C(F)(F)F)c(Cl)c2)NC(=O)CN(C)C(=O)[C@H](CC2CCCCC2)N(C)C(=O)CN(C)C(=O)CN(C)C1=O [Compound 874] (cyclo([Ac5c][NMeGly(cPr)][NMedβ3hAla][NMeL]I[Sar][Sar][NMeCha][Sar][hPhe(3-Cl-4-CF3)]P)) | > 500
5 | CCCC[C@@H]1NC(=O)[C@H](Cc2cccc(I)c2)NC(=O)CN(C)C(=O)[C@H](CC2CCCC2)N(C)C(=O)[C@@H]2CCN2C(=O)[C@H](C)N(C)C(=O)[C@H]([C@@H](C)CC)NC(=O)[C@H](CC(C)C)N(C)C(=O)C[C@@H](C(=O)N2CCCCC2)N(C)C(=O)[C@H](CC(C)C)NC(=O)C(C)(C)N(C)C1=O [Compound 1432] ([NMeL]I[NMeA][Aze][NMeAla(cPent)][Sar][Phe(3-I)][Nle][NMeAib]L[NMeD]-Piperidide; lactam N-11) | > 500
6 | CC[C@H](C)[C@@H]1NC(=O)[C@H](CC(C)C)N(C)C(=O)C[C@@H](C)NC(=O)[C@H](C2CCCCC2)N(C)C(=O)C2(CCCC2)NC(=O)[C@@H]2CCCN2C(=O)[C@H](CCc2ccc(C(F)(F)F)c(Cl)c2)NC(=O)CN(C)C(=O)[C@H](CC2CCCCC2)N(C)C(=O)CN(C)C(=O)CN(C)C1=O [Compound 593] (cyclo([Ac5c][NMeChg][d(β3hA)][NMeL]I[Sar][Sar][NMeCha][Sar][hPhe(3-Cl-4-CF3)]P)) | > 500
7 | CC[C@H](C)[C@@H]1NC(=O)[C@H](C)N(C)C(=O)C[C@@H](C(=O)N2CCCCC2)NC(=O)[C@H](CC(C)C)N(C)C(=O)[C@H](Cc2ccccc2)N(C)C(=O)[C@H](CC(C)C)NC(=O)[C@H](CCc2ccc(C(F)(F)F)c(Cl)c2)NC(=O)CN(C)C(=O)[C@H](Cc2ccc(Cl)cc2)N(C)C(=O)CN(C)C(=O)CN(C)C1=O [Compound 861] ([NMeA]I[Sar][Sar][NMePhe(4-Cl)][Sar][hPhe(3-Cl-4-CF3)]L[NMeF][NMeL]D-Piperidide; lactam N-11) | > 500
8 | CC[C@H](C)[C@@H]1NC(=O)[C@H](CC(C)C)N(C)C(=O)C[C@@H](C(=O)N2CCCCC2)N(C)C(=O)[C@H](CC(C)C)NC(=O)C(C)(C)N(C)C(=O)[C@H](CCc2ccccc2)NC(=O)[C@H](Cc2cccc(I)c2)NC(=O)CN(C)C(=O)[C@H](Cc2ccc(C)cc2)N(C)C(=O)CN(C)C(=O)CN(C)C1=O [Compound 13] ([NMeL]I[Sar][Sar][NMePhe(4-Me)][Sar][Phe(3-I)][hPhe][NMeAib]L[NMeD]-Piperidide; lactam N-11) | > 500
9 | CC[C@H](C)[C@@H]1NC(=O)[C@H](CCC(C)C)N(C)C(=O)C[C@@H](C(=O)N2CCC2)N(C)C(=O)[C@H](C2CCCC2)N(C)C(=O)C2(CCCC2)NC(=O)[C@@H]2CCCN2C(=O)[C@H](CCc2ccc(C(F)(F)F)c(Cl)c2)NC(=O)CN(C)C(=O)[C@H](CC2CCCCC2)N(C)C(=O)[C@@H]2CCN2C(=O)[C@H](C)N(C)C1=O [Compound 806] ([NMehLeu]I[NMeA][Aze][NMeCha][Sar][hPhe(3-Cl-4-CF3)]P[Ac5c][NMeGly(cPent)][NMeD]-{Azetidin(1-yl)}; lactam N-11) | ≤ 20
